# Reference: ChEMBL document CHEMBL1149429, “Privileged structure-based quinazolinone natural product-templated libraries: identification of novel tubulin polymerization inhibitors” (Bioorg Med Chem Lett, 2006)
# Active and inactive are the calls of the source. No cut-off for these calls is given here.
# What was measured:
# HMEC = experiment: Antiproliferative activity against HMEC cell line by MTS assay; assay type: functional, cell-based; conditions: Homo sapiens
# Tubulin (Homo sapiens) = Tubulin (Homo sapiens) (UniProt P68371+Q9H4B7+P0DPH7+P68366+Q13509+Q71U36+P04350+Q3ZCM7+P07437+P68363+Q9BQE3+Q6PEY2+Q13885+Q9BVA1+Q9BUF5); experiment: Inhibitory activity against tubulin polymerization; assay type: protein-complex assay
# A549 = experiment: Antiproliferative activity against A549 cell line by MTS assay; assay type: functional, cell-based; conditions: Homo sapiens
# DU-145 = experiment: Antiproliferative activity against DU145 cell line by MTS assay; assay type: functional, cell-based; conditions: Homo sapiens
# MDA-MB-231 = experiment: Antiproliferative activity against MDA-MB-231 cell line by MTS assay; assay type: functional, cell-based; conditions: Homo sapiens
# SF-268 = experiment: Antiproliferative activity against SF268 cell line by MTS assay; assay type: functional, cell-based; conditions: Homo sapiens
# NCI-H460 = experiment: Antiproliferative activity against NCI-H460 cell line by MTS assay; assay type: functional, cell-based; conditions: Homo sapiens
# Tubulin = experiment: Effect on induction of mitotic arrest by phosphohistone H3 (pH3) assay; assay type: functional
SMILES,IC50 (HMEC),Activity (Tubulin (Homo sapiens)),IC50 (A549),IC50 (DU-145),IC50 (MDA-MB-231),IC50 (SF-268),IC50 (NCI-H460),EC50 (Tubulin)
COc1cc(/C=C2\CCCn3c2nc2ccc(F)cc2c3=O)cc(OC)c1O,> 20 µM,Active,9.43 µM,14.2 µM,> 20 µM,14.1 µM,3.91 µM,–
CC(=O)O[C@H]1C(=O)[C@@]2(C)[C@H]([C@H](OC(=O)c3ccccc3)[C@]3(O)C[C@H](OC(=O)[C@H](O)[C@@H](NC(=O)c4ccccc4)c4ccccc4)C(C)=C1C3(C)C)[C@]1(OC(C)=O)CO[C@@H]1C[C@@H]2O [PACLITAXEL],–,–,0.013 µM,–,–,–,0.012 µM,0.031 µM
COc1cc(/C=C2\CCCn3c2nc2ccc(I)cc2c3=O)cc(OC)c1O,> 20 µM,Active,10.6 µM,10.3 µM,> 20 µM,11.2 µM,4.31 µM,10.6 µM
COc1cc(/C=C2\CCCn3c2nc2ccc(Cl)cc2c3=O)cc(OC)c1O,> 20 µM,Active,> 20 µM,18.3 µM,> 20 µM,18.6 µM,8.63 µM,–
COc1cc(/C=C2\CCCn3c2nc2ccc(Br)cc2c3=O)cc(OC)c1O,> 20 µM,Active,11.7 µM,8.47 µM,> 20 µM,6.72 µM,1.98 µM,2.38 µM
COc1cc(/C=C2\CCCn3c2nc2c(OC)cccc2c3=O)cc(OC)c1O,> 20 µM,Active,0.69 µM,0.51 µM,1.3 µM,0.79 µM,0.33 µM,0.54 µM
COc1cc(/C=C2\CCCn3c2nc2c(O)cccc2c3=O)cc(OC)c1O,> 20 µM,Active,5.49 µM,3.11 µM,7.72 µM,4.76 µM,1.36 µM,1.16 µM
COc1cc(/C=C2\CCCn3c2nc2c(C)cccc2c3=O)cc(OC)c1O,> 20 µM,Active,3.17 µM,2.63 µM,11.2 µM,3.48 µM,1.5 µM,1.64 µM
COc1cc(/C=C2\CCCn3c2nc2ccc(O)cc2c3=O)cc(OC)c1O,> 20 µM,Active,> 20 µM,> 20 µM,> 20 µM,> 20 µM,14.9 µM,–
COc1cc(/C=C2\CCCn3c2nc2c(C)cc(C)cc2c3=O)cc(OC)c1O,> 20 µM,Active,0.55 µM,0.79 µM,2.09 µM,0.83 µM,0.24 µM,0.26 µM
COc1ccc2nc3n(c(=O)c2c1)CCC/C3=C\c1cc(OC)c(O)c(OC)c1,> 20 µM,Active,> 20 µM,10.3 µM,> 20 µM,> 20 µM,3.71 µM,–
COc1cc(/C=C2\CCCn3c2nc2ccc(C)cc2c3=O)cc(OC)c1O,> 20 µM,Active,> 20 µM,14.7 µM,> 20 µM,11.5 µM,3.2 µM,–
